Values quoted from earlier work in patent US20060074243A1, “Hydroxamic acid and amide compounds and their use as protease inhibitors” (Pharmacia Corporation, priority 2002, published 2006).

System: solid tumor cancers (colorectal, pancreatic, ovarian, and prostate)
Details: cited from earlier work

CNC(=O)[C@@H](NC(=O)[C@H](CC(C)C)[C@H](O)C(=O)NO)C(C)(C)C [Marimastat]
most common drug-related toxicity (clinical trials): musculoskeletal pain and stiffness | rise of cancer-specific antigens used as surrogate markers for biological activity (patients with advanced, rapidly progressive, treatment-refractory solid tumor cancers): dose-related reduction
